Tested on: 782815-120-R-J1-PDC complex spheroid viability
Experiment: Anticancer human tumor 782815-120-R-J1-PDC patient-derived colon adenocarcinoma cell line growth inhibition [RAS]
Details: for IC50: curve of first compound; for viability, T/C: stronger effect = lower value
Outline: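 Tumour cells grown as complex spheroids with HUVEC endothelial cells and mesenchymal stem cells, treated with RAS pathway inhibitor combinations. Each agent spans half-log steps from near clinical Cmax, or 10 microM where Cmax is unknown.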

[1] = second compound 0.000949 µM, first compound 0.0316 µM
[2] = second compound 0.000949 µM, first compound 0.1 µM
[3] = second compound 0.000949 µM, first compound 0.316 µM
[4] = second compound 0.000949 µM, first compound 1 µM
[5] = second compound 0.000949 µM, first compound 3.16 µM
[6] = second compound 0.000949 µM, first compound 10 µM
[7] = second compound 0.003 µM, first compound 0.0316 µM
[8] = second compound 0.003 µM, first compound 0.1 µM
[9] = second compound 0.003 µM, first compound 0.316 µM
[10] = second compound 0.003 µM, first compound 1 µM
[11] = second compound 0.003 µM, first compound 3.16 µM
[12] = second compound 0.003 µM, first compound 10 µM
[13] = second compound 0.00949 µM, first compound 0.0316 µM
[14] = second compound 0.00949 µM, first compound 0.1 µM
[15] = second compound 0.00949 µM, first compound 0.316 µM
[16] = second compound 0.00949 µM, first compound 1 µM
[17] = second compound 0.00949 µM, first compound 3.16 µM
[18] = second compound 0.00949 µM, first compound 10 µM
[19] = second compound 0.03 µM, first compound 0.0316 µM
[20] = second compound 0.03 µM, first compound 0.1 µM
[21] = second compound 0.03 µM, first compound 0.316 µM
[22] = second compound 0.03 µM, first compound 1 µM
[23] = second compound 0.03 µM, first compound 3.16 µM
[24] = second compound 0.03 µM, first compound 10 µM
[25] = second compound 0.0949 µM, first compound 0.0316 µM
[26] = second compound 0.0949 µM, first compound 0.1 µM
[27] = second compound 0.0949 µM, first compound 0.316 µM
[28] = second compound 0.0949 µM, first compound 1 µM
[29] = second compound 0.0949 µM, first compound 3.16 µM
[30] = second compound 0.0949 µM, first compound 10 µM
[31] = second compound 0.3 µM, first compound 0.0316 µM
[32] = second compound 0.3 µM, first compound 0.1 µM
[33] = second compound 0.3 µM, first compound 0.316 µM
[34] = second compound 0.3 µM, first compound 1 µM
[35] = second compound 0.3 µM, first compound 3.16 µM
[36] = second compound 0.3 µM, first compound 10 µM
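Note: spheroids exposed to compounds for 7 days before reading.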
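Throughout, for viability, T/C: 100% = DMSO vehicle control viability.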

CC(=O)OC12COC1CC(O)C1(C)C(=O)C(O)C3=C(C)C(OC(=O)C(O)C(NC(=O)OC(C)(C)C)c4ccccc4)CC(O)(C(OC(=O)c4ccccc4)C21)C3(C)C (stereo unspecified) + CCn1c(-c2cccnc2C(C)OC)c2c3cc(ccc31)N1CCOC(CC(NC(=O)C(C(C)C)N(C)C(=O)C3(F)CCN(C(=O)C#CC(C)(C)N(C)C)CC3)C(=O)N3CCCC(N3)C(=O)OCC(C)(C)C2)C1
IC50 (second compound 0.000949 µM): < 31.6 nM | IC50 (second compound 0.003 µM): < 31.6 nM | IC50 (second compound 0.00949 µM): < 31.6 nM | IC50 (second compound 0.03 µM): < 31.6 nM | IC50 (second compound 0.0949 µM): < 31.6 nM | IC50 (second compound 0.3 µM): < 31.6 nM | viability, T/C [1]: 31.7% | viability, T/C [2]: 27.2% | viability, T/C [3]: 28.5% | viability, T/C [4]: 30.2% | viability, T/C [5]: 27.4% | viability, T/C [6]: 32.5% | viability, T/C [7]: 33.1% | viability, T/C [8]: 26.5% | viability, T/C [9]: 28.2% | viability, T/C [10]: 32.6% | viability, T/C [11]: 27.9% | viability, T/C [12]: 30.2% | viability, T/C [13]: 29% | viability, T/C [14]: 29.7% | viability, T/C [15]: 29.9% | viability, T/C [16]: 32.5% | viability, T/C [17]: 26.1% | viability, T/C [18]: 28.2% | viability, T/C [19]: 34.2% | viability, T/C [20]: 29.4% | viability, T/C [21]: 24% | viability, T/C [22]: 27.7% | viability, T/C [23]: 29.5% | viability, T/C [24]: 27.7% | viability, T/C [25]: 28.6% | viability, T/C [26]: 29.9% | viability, T/C [27]: 25.7% | viability, T/C [28]: 31.2% | viability, T/C [29]: 26% | viability, T/C [30]: 26.7% | viability, T/C [31]: 22.7% | viability, T/C [32]: 27.9% | viability, T/C [33]: 23.3% | viability, T/C [34]: 21.9% | viability, T/C [35]: 25.2% | viability, T/C [36]: 24.4%

NC1c2ccccc2OC12CCN(c1cnc3c(N4CCCc5ncccc54)n[nH]c3n1)CC2 (stereo unspecified) + CCn1c(-c2cccnc2C(C)OC)c2c3cc(ccc31)N1CCOC(CC(NC(=O)C(C(C)C)N(C)C(=O)C3(F)CCN(C(=O)C#CC(C)(C)N(C)C)CC3)C(=O)N3CCCC(N3)C(=O)OCC(C)(C)C2)C1
IC50 (second compound 0.000949 µM): > 10000 nM | IC50 (second compound 0.003 µM): > 10000 nM | IC50 (second compound 0.00949 µM): > 10000 nM | IC50 (second compound 0.03 µM): > 10000 nM | IC50 (second compound 0.0949 µM): > 10000 nM | IC50 (second compound 0.3 µM): > 10000 nM | viability, T/C [1]: 97.9% | viability, T/C [2]: 105% | viability, T/C [3]: 108% | viability, T/C [4]: 105% | viability, T/C [5]: 93.9% | viability, T/C [6]: 77.7% | viability, T/C [7]: 91.5% | viability, T/C [8]: 104% | viability, T/C [9]: 101% | viability, T/C [10]: 89.4% | viability, T/C [11]: 102% | viability, T/C [12]: 85.8% | viability, T/C [13]: 96.2% | viability, T/C [14]: 109% | viability, T/C [15]: 91.5% | viability, T/C [16]: 93.2% | viability, T/C [17]: 100% | viability, T/C [18]: 76.7% | viability, T/C [19]: 88.5% | viability, T/C [20]: 106% | viability, T/C [21]: 95.1% | viability, T/C [22]: 98.5% | viability, T/C [23]: 91.2% | viability, T/C [24]: 80.3% | viability, T/C [25]: 89.1% | viability, T/C [26]: 93% | viability, T/C [27]: 92.6% | viability, T/C [28]: 99.7% | viability, T/C [29]: 103% | viability, T/C [30]: 76.5% | viability, T/C [31]: 90.8% | viability, T/C [32]: 91.6% | viability, T/C [33]: 85.8% | viability, T/C [34]: 92.5% | viability, T/C [35]: 88.6% | viability, T/C [36]: 73.4%

Nc1ccn(C2OC(CO)C(O)C2(F)F)c(=O)n1 (stereo unspecified) + CCn1c(-c2cccnc2C(C)OC)c2c3cc(ccc31)N1CCOC(CC(NC(=O)C(C(C)C)N(C)C(=O)C3(F)CCN(C(=O)C#CC(C)(C)N(C)C)CC3)C(=O)N3CCCC(N3)C(=O)OCC(C)(C)C2)C1
IC50 (second compound 0.000949 µM): 29.3 nM | IC50 (second compound 0.003 µM): 42.4 nM | IC50 (second compound 0.00949 µM): 31.5 nM | IC50 (second compound 0.03 µM): 38 nM | IC50 (second compound 0.0949 µM): 50 nM | IC50 (second compound 0.3 µM): 47.6 nM | viability, T/C (second compound 0.000949 µM, first compound 0.00316 µM): 89.4% | viability, T/C (second compound 0.000949 µM, first compound 0.01 µM): 64.7% | viability, T/C [1]: 50.6% | viability, T/C [2]: 37.2% | viability, T/C [3]: 23.5% | viability, T/C [4]: 23.5% | viability, T/C (second compound 0.003 µM, first compound 0.00316 µM): 95% | viability, T/C (second compound 0.003 µM, first compound 0.01 µM): 71.3% | viability, T/C [7]: 59.3% | viability, T/C [8]: 34.6% | viability, T/C [9]: 27.3% | viability, T/C [10]: 24.5% | viability, T/C (second compound 0.00949 µM, first compound 0.00316 µM): 96.2% | viability, T/C (second compound 0.00949 µM, first compound 0.01 µM): 71.8% | viability, T/C [13]: 50.8% | viability, T/C [14]: 34.7% | viability, T/C [15]: 29.1% | viability, T/C [16]: 25.7% | viability, T/C (second compound 0.03 µM, first compound 0.00316 µM): 85.4% | viability, T/C (second compound 0.03 µM, first compound 0.01 µM): 75.7% | viability, T/C [19]: 53.2% | viability, T/C [20]: 33.6% | viability, T/C [21]: 27.2% | viability, T/C [22]: 25.7% | viability, T/C (second compound 0.0949 µM, first compound 0.00316 µM): 83.6% | viability, T/C (second compound 0.0949 µM, first compound 0.01 µM): 71.8% | viability, T/C [25]: 57.9% | viability, T/C [26]: 38.7% | viability, T/C [27]: 28.1% | viability, T/C [28]: 20.1% | viability, T/C (second compound 0.3 µM, first compound 0.00316 µM): 85.3% | viability, T/C (second compound 0.3 µM, first compound 0.01 µM): 71.2% | viability, T/C [31]: 58.4% | viability, T/C [32]: 38.5% | viability, T/C [33]: 24.2% | viability, T/C [34]: 22.1%

Source: PubChem BioAssay AID2060887 (Molecular Pharmacology Branch, DTP, NCI, 2025)
